How the values were obtained:
Assay type in all cases: cell-based
04.03 cells = assay: Clonogenic cell survival assay, 04.03 cells; settings: for CI AZD + 2Gy / CI TTFields + 2Gy + AZD / CI TTFields + AZD: CI>1 synergistic
Experimental: (§1) Using certain embodiments disclosed herein, TTFields in combination with various inhibitors and/or radiation treatment (IR) were applied to NSCLC cells or pancreatic cancer cells. For example, a predetermined inhibitor at a predetermined concentration was delivered to NSCLC cells or pancreatic cancer cells, and the cells were immediately exposed to TTFields (e.g., 100-250 kHz and 1-20 V/cm v/cm) for about 24, […], or 72 hours. The predetermined concentration was a cell line specific concentration for optimal target cell killing.
(§2) Olaparib was given concomitant with TTFields. Radiation was given 24, 48 or 72 h after the initiation of TTFields and specific agents. […] Values greater than 1.0 are considered as synergistic, that is, greater than the sum of the individual responses. The following formulas were used for calculating CI: SF=Survival Fraction; CI (TTFields)+(2Gy)=(SF2Gy×SFTTFields)/SF2Gy+TTFields; CI(TTFields)+(Olap)=(SFOlap×SFTTFields)/SFOlap+TTFields; CI (2Gy)+(Olap)=(SF2Gy×SFOlap)/SF2Gy+Olap; and CI (TTFields)+(2Gy)+(Olap)=(SF2Gy×SFOlap×SFTTFields)/SFTTFields+2Gy+Olap. […] Based upon the Highest Single Agent […] approach. The calculation for the Combination Index can be found below.
(§3) FIGS. 4 and 5 depict example effects of TTFields, AZD6738, radiation, and a combination thereof on non-small cell lung cancer cells (NSCLC) and pancreatic cancer cell, respectively. In particular, FIGS. 4 and 5 show TTFields exposure synergistically increases the effects of ATR inhibitor AZD6738 on NSLCL cells (FIG. 4) survival and pancreatic cancer cell (FIG. 5) survival. TTFields were used together with ATR inhibitor AZD6738 and radiation (IR). A synergistic effect was observed when AZD6738 and IR were combined with TTFields using the highest single agent (HSA) approach. The following formulas were used for calculating CI: SF=Survival Fraction; CI (TTFields)+(2Gy)=(SF2Gy×SFTTFields)/SF2Gy+TTFields; CI(TTFields)+(AZD)=(SFAZD×SFTTFields)/SFAZD+TTFields; CI (2Gy)+(AZD)=(SF2Gy×SFAZD)/SF2Gy+AZD; and CI (TTFields)+(2Gy)+(AZD)=(SF2Gy×SFAZD×SFTTFields)/SFTTFields+2Gy+AZD.

H157 cells [1] = assay: Clonogenic cell survival assay, H157 cells; settings: 48 h, CI>1 synergistic
Panc-1 cells = assay: Clonogenic cell survival assay, Panc-1 cells; settings: for CI AZD + 2Gy / CI TTFields + 2Gy + AZD / CI TTFields + AZD: CI>1 synergistic
Experimental: as §1, §2, §3
(§4) The following formulas are used for calculating the combination Index: SF=Survival Fraction; CI (TTFields)+(2Gy)=(SF2Gy×SFTTFields)/SF2Gy+TTFields; CI(TTFields)+(Irino)=(SFIrino×SFTTFields)/SFIrino+TTFields; CI (2Gy)+(Irino)=(S2Gy×SFIrino)SF2Gy+Irino; and CI (TTFields)+(2Gy)+(Irino)=(SF2Gy×SFIrino×SFTTFields)/SFTTFields+2Gy+Irino.

H1299 cells [2] = assay: Clonogenic cell survival assay, H1299 cells; settings: for CI AZD + 2Gy / CI TTFields + 2Gy + AZD / CI TTFields + AZD / CI TTFields + ETOP / CI TTFields + CP: CI>1 synergistic
Experimental: as §1, with “killing. Then, the cells were irradiated (at a dose of 2Gy) for less than a minute (e.g., 3.25 Gy/min) and immediately plated for survival.” for “killing.”
as §3, §4

H1299 cells [3] = assay: Clonogenic cell survival assay, H1299 cells; settings: 48 h, CI>1 synergistic
H157 cells [4] = assay: Clonogenic cell survival assay, H157 cells; settings: for CI AZD + 2Gy / CI TTFields + 2Gy + AZD / CI TTFields + AZD / CI TTFields + ETOP / CI TTFields + CP: CI>1 synergistic
Experimental: as §1, with “killing. Then, the cells were irradiated (at a dose of 2Gy) for less than a minute (e.g., 3.25 Gy/min) and immediately plated for survival.” for “killing.”
as §3, §4

NSCLC = assay: Cell survival of NSCLC cells with CP/ETP with/without TTFields (FIG. 6); settings: HSA approach
Experimental: as §1, with “killing. Then, the cells were irradiated (at a dose of 2Gy) for less than a minute (e.g., 3.25 Gy/min) and immediately plated for survival.” for “killing.”
FIG. 6 depicts example effects of TTFields, Cisplatin, Etoposide, and a combination thereof on NSCLC. […] CP and ETP were tested alone or in combination and with/without TTFields.

C[C@@H]1COCCN1c1cc(C2([S@](C)(=N)=O)CC2)nc(-c2cc[nH]c3nccc2-3)n1 [AZD, Ceralasertib (AZD6738)]
effect of combinations of TTFields, agent and/or IR on cell survival (04.03 cells): synergistic effects | CI AZD + 2Gy (04.03 cells; 24 h): 1.018 | CI TTFields + 2Gy + AZD (04.03 cells; 24 h): 1.272 | CI TTFields + AZD (04.03 cells; 24 h): 1.049 | CI AZD + 2Gy (04.03 cells; 48 h): 1.158 | CI TTFields + 2Gy + AZD (04.03 cells; 48 h): 2.394 | CI TTFields + AZD (04.03 cells; 48 h): 1.550 | CI AZD + 2Gy (04.03 cells; 72 h): 1.011 | CI TTFields + 2Gy + AZD (04.03 cells; 72 h): 2.674 | CI TTFields + AZD (04.03 cells; 72 h): 1.287 | surviving fraction (04.03 cells; agent as shown in figure): significantly reduced | CI TTFields + AZD (H157 cells [1]): 1.072 | effect of combinations of TTFields, agent and/or IR on cell survival (Panc-1 cells): synergistic effects | CI AZD + 2Gy (Panc-1 cells; 24 h): 0.894 | CI TTFields + 2Gy + AZD (Panc-1 cells; 24 h): 1.068 | CI TTFields + AZD (Panc-1 cells; 24 h): 1.088 | CI AZD + 2Gy (Panc-1 cells; 48 h): 0.879 | CI TTFields + 2Gy + AZD (Panc-1 cells; 48 h): 1.153 | CI TTFields + AZD (Panc-1 cells; 48 h): 0.970 | CI AZD + 2Gy (Panc-1 cells; 72 h): 1.030 | CI TTFields + 2Gy + AZD (Panc-1 cells; 72 h): 1.514 | CI TTFields + AZD (Panc-1 cells; 72 h): 1.072 | surviving fraction (Panc-1 cells; agent as shown in figure): significantly reduced | effect of combinations of TTFields, agent and/or IR on cell survival (H1299 cells [2]): synergistic effects | CI AZD + 2Gy (H1299 cells [2]; 24 h): 1.127 | CI TTFields + 2Gy + AZD (H1299 cells [2]; 24 h): 3.553 | CI TTFields + AZD (H1299 cells [2]; 24 h): 1.070 | CI TTFields + 2Gy + AZD (H1299 cells [2]; 48 h): 2.535 | CI AZD + 2Gy (H1299 cells [2]; 72 h): 1.143 | CI TTFields + 2Gy + AZD (H1299 cells [2]; 72 h): 2.206 | CI TTFields + AZD (H1299 cells [2]; 72 h): 1.092 | surviving fraction (H1299 cells [2]; agent as shown in figure): significantly reduced | CI AZD + 2Gy (H1299 cells [3]): 1.215 | CI TTFields + AZD (H1299 cells [3]): 1.242 | effect of combinations of TTFields, agent and/or IR on cell survival (H157 cells [4]): synergistic effects | CI AZD + 2Gy (H157 cells [4]; 24 h): 1.498 | CI TTFields + 2Gy + AZD (H157 cells [4]; 24 h): 2.430 | CI TTFields + AZD (H157 cells [4]; 24 h): 1.048 | CI AZD + 2Gy (H157 cells [4]; 48 h): 1.292 | CI TTFields + 2Gy + AZD (H157 cells [4]; 48 h): 2.062 | CI AZD + 2Gy (H157 cells [4]; 72 h): 3.115 | CI TTFields + 2Gy + AZD (H157 cells [4]; 72 h): 4.874 | CI TTFields + AZD (H157 cells [4]; 72 h): 1.036 | surviving fraction (H157 cells [4]; agent as shown in figure): significantly reduced

COc1cc([C@@H]2c3cc4c(cc3[C@@H](O[C@@H]3O[C@@H]5CO[C@@H](C)O[C@H]5[C@H](O)[C@H]3O)[C@H]3COC(=O)[C@H]23)OCO4)cc(OC)c1O [ETOP, Etoposide]
cell killing capacity in combination with TTFields (NSCLC): synergistically enhanced | CI TTFields + ETOP (H157 cells [1]): 0.995 | CI TTFields + ETOP (H1299 cells [2]; 24 h): 1.387 | CI TTFields + ETOP (H1299 cells [2]; 48 h): 1.174 | CI TTFields + ETOP (H1299 cells [2]; 72 h): 1.140 | CI TTFields + ETOP (H157 cells [4]; 24 h): 0.842 | CI TTFields + ETOP (H157 cells [4]; 72 h): 1.021

N.N.[Cl][Pt][Cl] [CP, Cisplatin]
cell killing capacity in combination with TTFields (NSCLC): synergistically enhanced | CI TTFields + CP (H1299 cells [2]; 24 h): 1.140 | CI TTFields + CP (H1299 cells [2]; 48 h): 1.021 | CI TTFields + CP (H1299 cells [2]; 72 h): 1.225 | CI TTFields + CP (H157 cells [4]; 24 h): 0.887 | CI TTFields + CP (H157 cells [4]; 48 h): 0.869 | CI TTFields + CP (H157 cells [4]; 72 h): 1.079

From patent publication US20220288404A1, “METHODS FOR APPLYING TUMOR TREATING FIELDS IN COMBINATION WITH CANCER TREATING THERAPEUTICS” (THE BOARD OF REGENTS OF THE UNIVERSITY OF TEXAS SYSTEM, priority 2021, published 2022)
